{
  "source": "patent US8278319B2",
  "about": "“Substituted spiroamine compounds” (Gruenenthal GmbH, priority 2008, dated 2012)",
  "key": {"[1]": {"biological_target": "T1, rat B1R (Rattus norvegicus, UniProt P97583)", "T1 construct": "expressed in transfected cells; host or cells: CHO K1 cells", "T1 sequence (P97583 1-337)": "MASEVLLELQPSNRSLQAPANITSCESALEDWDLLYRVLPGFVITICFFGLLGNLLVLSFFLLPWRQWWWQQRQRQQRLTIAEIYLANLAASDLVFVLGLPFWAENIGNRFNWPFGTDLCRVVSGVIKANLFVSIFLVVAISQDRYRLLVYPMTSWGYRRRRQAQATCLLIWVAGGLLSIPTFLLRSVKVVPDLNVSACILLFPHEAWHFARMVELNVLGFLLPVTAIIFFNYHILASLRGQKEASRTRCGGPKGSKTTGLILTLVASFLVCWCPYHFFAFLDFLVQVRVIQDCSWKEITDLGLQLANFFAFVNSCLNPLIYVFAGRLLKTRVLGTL", "assay": "Functional investigation on the bradykinin receptor 1 (B1R), FLIPR Ca2+ assay, rB1R cells", "assay_type": "cell-based", "conditions": "% inhibition rat B1R at 10 μM; CHO K1 cells transfected with rat B1R; agonist Des-Arg9 bradykinin at EC80; read-out: % Inh. (rat B1R) 10 μM", "protocol": "(§1) The agonistic or antagonistic action of substances can be quantified on the bradykinin receptor 1 (B1R) of the human and rat species with ectopically expressing cell lines (CHO K1 cells) and with the aid of a Ca^2+-sensitive dye (Fluo-4) using a fluorescent imaging plate reader (FLIPR). The indication in % activation is based on the Ca^2+ signal after addition of Lys-Des-Arg^9 bradykinin (0.5 nM) or Des-Arg^9 bradykinin (100 nM). Antagonists lead to a suppression of the Ca^2+ influx following administration of the agonist. The % inhibition in comparison with the maximum achievable inhibition is indicated.\n(§2) The agonistic or antagonistic action of substances can be determined on the bradykinin 1 receptor (B1R) of the human and rat species with the following assay. According to this assay, the Ca^2+ inflow through the channel is quantified with the aid of a Ca^2+-sensitive dye (Fluo-4 type, Molecular Probes Europe BV, Leiden, The Netherlands) in a fluorescent imaging plate reader (FLIPR, Molecular Devices, Sunnyvale, USA).\n(§3) Chinese hamster ovary cells (CHO K1 cells) which are stably transfected with the human B1R gene (hB1R cells) or the B1R gene of the rat (rB1R cells) are used. For functional investigations, these cells are plated-out onto black 96-well plates with a clear base (BD Biosciences, Heidelberg, Germany or Greiner, Frickenhausen, Germany) in a density of 20,000-35,000 cells/well. Overnight, the cells are incubated at 37° C. and 5% CO2 in culture medium (hB1R cells: Nutrient Mixture Ham's F12, Gibco Invitrogen GmbH, Karlsruhe, Germany or DMEM, Sigma-Aldrich, Taufkirchen, Germany; rB1R cells: D-MEM/F12, Gibco Invitrogen, Karlsruhe, Germany) with 10 vol. % FBS (foetal bovine serum, Gibco Invitrogen GmbH, Karlsruhe, Germany or PAN Biotech GmbH, Aidenbach, Germany). On the following day the cells are loaded with 2.13 μM Fluo-4 (Molecular Probes Europe BV, Leiden, The Netherlands) in HBSS buffer (Hank's buffered saline solution, Gibco Invitrogen GmbH, Karlsruhe, Germany) with 2.5 mM probenecid (Sigma-Aldrich, Taufkirchen, Germany) and 10 mM HEPES (Sigma-Aldrich, Taufkirchen, Germany) for 60 min at 37° C. The plates are the washed twice with HBSS buffer, and HBSS buffer which additionally contains 0.1% BSA (bovine serum albumin; Sigma-Aldrich, Taufkirchen, Germany), 5.6 mM glucose and 0.05% gelatine (Merck KGaA, Darmstadt, Germany) is added. After a further incubation of 20 minutes at room temperature, the plates are inserted into the FLIPR for Ca^2+ measurement. Alternatively they are washed with buffer A (15 mM HEPES, 80 mM NaCl, 5 mM KCl, 1.2 mM CaCl2, 0.7 mM MgSO4, 2 g/l glucose, 2.5 mM probenecid) and loaded with buffer A with added 2.5 μM Fluo-4 and 0.025% Pluronic F127 (Sigma-Aldrich, Taufkirchen, Germany). The cells are then washed twice with buffer A and incubated for 30 minutes with buffer A, which additionally contains 0.05% BSA and 0.05% gelatine, at room temperature and then used for Ca^2+ measurement in the FLIPR.\n(§4) The Ca^2+-dependent fluorescence is measured here before and after addition of substances (λex=488 nm, λem=540 nm). The quantification is performed by measuring the highest fluorescence intensity (FC, fluorescence counts) over time.\n(§5) The FLIPR protocol comprises two additions of substance. Test substances (10 μM) are first pipetted onto the cells and the Ca^2+ inflow is compared with the control (hB1R: Lys-Des-Arg^9 bradykinin>=50 nM; rB1R: Des-Arg^9 bradykinin 10 μM). The value in % activation based on the Ca^2+ signal after addition of Lys-Des-Arg^9 bradykinin (>=50 nM) or Des-Arg^9 bradykinin (10 μM) is obtained therefrom. After incubation for 10-20 minutes, Lys-Des-Arg^9 bradykinin (hB1R) or Des-Arg^9 bradykinin (rB1R) is applied in the EC80 concentration and the inflow of Ca^2+ is likewise determined. Antagonists lead to a suppression of the Ca^2+ inflow. The % inhibition in comparison with the maximum achievable inhibition is calculated. […]"}, "[2]": {"biological_target": "T2, human B1R (Homo sapiens, UniProt P46663)", "T2 construct": "expressed in transfected cells; host or cells: CHO K1 cells", "T2 sequence (P46663 1-353)": "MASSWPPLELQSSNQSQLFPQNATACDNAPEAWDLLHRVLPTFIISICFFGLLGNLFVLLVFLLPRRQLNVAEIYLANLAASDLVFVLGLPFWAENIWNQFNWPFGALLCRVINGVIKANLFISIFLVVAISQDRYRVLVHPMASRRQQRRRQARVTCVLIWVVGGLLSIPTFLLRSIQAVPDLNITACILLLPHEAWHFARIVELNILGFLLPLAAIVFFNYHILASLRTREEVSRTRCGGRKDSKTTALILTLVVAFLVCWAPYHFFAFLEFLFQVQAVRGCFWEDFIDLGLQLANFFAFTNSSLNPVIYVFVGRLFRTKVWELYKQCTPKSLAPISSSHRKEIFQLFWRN", "assay": "Functional investigation on the bradykinin receptor 1 (B1R), FLIPR Ca2+ assay, hB1R cells", "assay_type": "cell-based", "conditions": "% inhibition human B1R at 10 μM; CHO K1 cells transfected with human B1R; agonist Lys-Des-Arg9 bradykinin at EC80; read-out: % Inh. (hum. B1R) 10 μM", "protocol": "as §1, §2, §3, §4, §5"}},
  "data": [
    {"smiles": "COc1cc(C)c(S(=O)(=O)N(CCOCC(=O)N2CCC3(CC2)CCC(c2cccs2)(N(C)C)CC3)C2CC2)c(C)c1", "note": "[CC-12, N-Cyclopropyl-N-[2-[2-(3-dimethylamino-3-thiophen-2-yl-9-azaspiro[5.5]undecan-9-yl)-2-oxo-ethoxy]-ethyl]-4-methoxy-2,6-dimethyl-benzenesulfonic acid amide]", "values": [
      {"measurement": "inhibition at 10 µM", "setting": "[1]", "value": 97, "unit": "%"},
      {"measurement": "inhibition at 10 µM", "setting": "[2]", "value": 100, "unit": "%"}
    ]}
  ]
}
